The values below come from the supplement of paper PMC10307832.

Test in all cases: relative viability (nuclei count vs DMSO), 5 days (fraction); higher = more cells survive
Compound in the assay “RO-3306 + Vorinostat”: C1=CC2=C(C=CC(=C2)C=C3C(=O)NC(=NCC4=CC=CS4)S3)N=C1 [RO-3306] + O=C(CCCCCCC(=O)Nc1ccccc1)NO [Vorinostat] (partner 1 µM)
The procedure, abridged: (§1)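 Cells from lung cancer lines were seeded into 1536-well plates and, one day later, dosed by pin tool. Treatments were either a single drug or a fixed dose of an anchor drug with five library-drug doses (not always all listed) in √10 steps. After 5 days, nuclei were stained in a one-step fixation (final 0.05% Triton X-100, 1% formaldehyde, 1 ug/ml Hoechst) and counted on 4× images, and relative viability is the treated-to-vehicle nuclei ratio, as the median of duplicate plates.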

Compound in the assay “RO-3306 + Crizotinib”: C1=CC2=C(C=CC(=C2)C=C3C(=O)NC(=NCC4=CC=CS4)S3)N=C1 [RO-3306] + C[C@@H](Oc1cc(-c2cnn(C3CCNCC3)c2)cnc1N)c1c(Cl)ccc(F)c1Cl [Crizotinib] (partner 1 µM)
The gist of the method:
as §1

Compound in the assay “RO-3306 + Alpelisib”: C1=CC2=C(C=CC(=C2)C=C3C(=O)NC(=NCC4=CC=CS4)S3)N=C1 [RO-3306] + Cc1nc(NC(=O)N2CCC[C@H]2C(N)=O)sc1-c1ccnc(C(C)(C)C(F)(F)F)c1 [Alpelisib] (partner 2 µM)
The gist of the method: as §1

Compound in assay [1]: O=S(=O)(c1ccccc1)N(CC(F)(F)F)c1ccc(C(O)(C(F)(F)F)C(F)(F)F)cc1 + CC1(C)CCC(c2ccc(Cl)cc2)=C(CN2CCN(c3ccc(C(=O)NS(=O)(=O)c4ccc(N[C@H](CCN5CCOCC5)CSc5ccccc5)c(S(=O)(=O)C(F)(F)F)c4)cc3)CC2)C1 [Navitoclax] (partner 0.5 µM)
The procedure, abridged: as §1

SK-MES-1: the relative viability turned out to be 1.35 in the assay with RO-3306 + Vorinostat (first compound 0.01 µM); 1.12 with RO-3306 + Vorinostat (first compound 0.03162 µM); 1.12 with RO-3306 + Vorinostat (first compound 0.1 µM); 1.32 with RO-3306 + Vorinostat (first compound 0.3162 µM); 1.08 with RO-3306 + Vorinostat (first compound 1 µM); 1.1 with RO-3306 + Crizotinib (first compound 0.01 µM). Further, the relative viability is 0.867 with RO-3306 + Crizotinib (first compound 0.03162 µM); 0.969 with RO-3306 + Crizotinib (first compound 0.1 µM); 0.991 in the assay with RO-3306 + Crizotinib (first compound 0.3162 µM); 1.07 with RO-3306 + Crizotinib (first compound 1 µM); 0.9 in the assay with RO-3306 + Alpelisib (first compound 0.01 µM); 0.553 with RO-3306 + Alpelisib (first compound 0.03162 µM). Moreover, the relative viability in the assay with RO-3306 + Alpelisib (first compound 0.1 µM) was 0.831; with RO-3306 + Alpelisib (first compound 0.3162 µM), 0.983; with RO-3306 + Alpelisib (first compound 1 µM), 0.922; in assay [1] (first compound 0.8 µM), 1.42; in assay [1] (first compound 2.53 µM), 1.33; in assay [1] (first compound 8 µM), 1.21.

On to SW 1573, for which the relative viability is 0.67 with RO-3306 + Vorinostat (first compound 0.01 µM); 0.598 with RO-3306 + Vorinostat (first compound 0.03162 µM); 0.738 in the assay with RO-3306 + Vorinostat (first compound 0.1 µM); 0.715 with RO-3306 + Vorinostat (first compound 0.3162 µM); 0.763 with RO-3306 + Vorinostat (first compound 1 µM); 0.879 in the assay with RO-3306 + Crizotinib (first compound 0.01 µM). Moreover, the relative viability in the assay with RO-3306 + Crizotinib (first compound 0.03162 µM) stood at 0.62; with RO-3306 + Crizotinib (first compound 0.1 µM) it was 0.771; in the assay with RO-3306 + Crizotinib (first compound 0.3162 µM), 0.865; with RO-3306 + Crizotinib (first compound 1 µM) it was 0.606; with RO-3306 + Alpelisib (first compound 0.01 µM), 0.701; in the assay with RO-3306 + Alpelisib (first compound 0.1 µM), 0.848. The relative viability turned out to be 0.832 with RO-3306 + Alpelisib (first compound 0.3162 µM); 0.905 with RO-3306 + Alpelisib (first compound 1 µM); 1.26 in assay [1] (first compound 0.8 µM); 0.874 in assay [1] (first compound 2.53 µM); 0.641 in assay [1] (first compound 8 µM).
